For data set [1] the following is noted: patients, Compound E alone or coadministered with ERN. On the procedure: (§1) Patients (N=412) were randomized to ERN 1 gram (given as Niaspan®, with no prior titration) plus compound E placebo, 18.75, 37.5, 75 or 150 mg, or double placebo for 4 weeks (acute phase) with doubling of the respective doses for the remaining 4 weeks (chronic phase). Patients reported flushing intensity using the validated Global Flushing Severity Score (GFSS); none/mild (0-3), moderate (4-6), severe (7-9) and extreme (10) in a daily eDiary. A subset of patients was randomized to compound E 150 mg versus placebo in a 4-week crossover safety study.

The test system of data set [2] is extended-release niacin (ERN) induced flushing. The conditions noted are these: patients. The procedure: as §1
Data set [3] concerns lipid altering effects of ERN. The conditions noted are these: patients, Compound E 150 mg with ERN.

The values that follow come from patent US20100260841A1, “Method of Treating Atherosclerosis, Dyslipidemias and Related Conditions” (priority 2007, published 2010).

For the compound `CS(=O)(=O)c1cc(F)cc2c3c(n(Cc4ccc(Cl)cc4)c12)[C@@H](CC(=O)O)CC3` [Compound E], the “incidence of adverse experiences” value in data set [1] is recorded as “low incidence”. For the same compound, the “acute phase flushing intensity compared to ERN alone” value in data set [2] (Compound E plus ERN 1 gram, first 4 weeks, GFSS, dose-response p<0.001) is reported as “significantly lower”. Also, the “chronic phase flushing intensity compared to ERN alone” value in data set [2] (Compound E plus ERN, doubled doses, remaining 4 weeks, GFSS, dose-response p=0.021) is given as “significantly lower”. Moreover, the “tolerability and achievement of optimal therapeutic dosing of niacin” value in data set [2] (Compound E with ERN treatment) was “significantly improved”. In addition, in data set [2] (each coadministered dose of Compound E (18.75, 37.5, 75 or 150 mg), p<0.05), the “flushing intensity versus ERN alone at each coadministered dose” value was “significantly (p<0.05) lower flushing intensity”. In data set [3], the “impact on the lipid altering effects of ERN” value is reported as “did not significantly impact”.
